Experiments:
[1] = system: B cells; assay: Secretion of antibodies
[2] = system: CD4^+ T cells; assay: Proliferation of CD4+ T cells obtained from antigen-primed animals; type: cell-based; conditions: CD4+ T cells from OVA-FCA injected mice, stimulated with antigen-pulsed γ-irradiated splenocytes
Experimental: A single cell suspension of mice splenocytes obtained from OVA-CFA primed mice. The red blood cells were depleted by treatment with hemolytic Gey's solution. The adherent cells were removed by plating onto plastic Petri plates for 2 h at 37° C. and 7% CO2. The non-adherent cells were loaded (1×10^6 cells/ml) onto the nylon wool column and incubated for 90 min at 37° C. After the incubation period, warm RPMI was passed into the column to elute T lymphocytes. The T cells were washed with RPMI and incubated with anti-Mac3 (TIB-168), anti-IA^d (MKD6), anti-dendritic cell (TIB-227), anti-IgM and anti-CD8 Abs for 45 min at 4° C. […] The purity of the cells was analyzed by flow-cytometry of the cells stained with anti-CD3 and CD4 Abs. […]
Examples establishing the role of Caerulomycin A [isolated from a novel species of Actinoalloteichus] in inducing immunosuppression based on the following: • Splenocytes of BALB/c mice were stimulated with either ConA (1 μg/ml and 2 μg/ml) or LPS (5 μg/ml and 10 μg/ml) and were cultured with different concentrations of Caerulomycin A (0.0003-0.1 μg/ml). […] Radioactivity incorporated was measured by liquid scintillation counting. • Antigen ovalbumin (100 μg/ml) emulsified in Freund's complete adjuvant was injected in a group consisting of 5 BALB/c mice. […] Radioactivity incorporated was measured by liquid scintillation. […]

[3] = system: antigen specific T cells; assay: In vivo proliferation of antigen specific T cells (OVA-primed mice injected with drug, splenocytes cultured ex vivo); parameters: species or system BALB/c mice; conditions: for proliferation of cells from antigen-primed animals injected with drug versus animals not administered drug: 25-100 μg/mice/day i.p. for 7 days
Experimental: FIG. 1: Different groups, each comprising five animals were immunized with OVA, followed by CaeA administration daily for 7 days before mice were sacrificed. Splenocytes (2×10^5 cells/well) were isolated and cultured in vitro with 100 μg/ml OVA and varied doses of CaeA. After 72 h, [^3H]-thymidine was added, and its incorporation was measured 16 h later.
FIG. 2: In another set of experiment, three different groups were immunized with OVA followed by administration of CaeA (25 μg/mice) in one of the group and Alcohol (vehicle control) in another group, daily for 7 days before mice were sacrificed. Splenocytes (2×10^5 cells/well) were isolated and cultured in vitro alone or with OVA 100 and 200 μg/ml (1.2). Each point represents the mean±SEM of triplicate determinations from one of the three representative experiments.
OVA (2 mg/ml) was dissolved in PBS (0.01 M, pH 7.2) and emulsified in Freund's complete adjuvant (FCA). Emulsion (100 μl) was then injected intraperitoneally (i.p.) in 7 groups, comprising 5 BALB/c mice in each set. Four groups of animals were injected intraperitoneally daily with Caerulomycin A (25, 50, 75, 100 μg/100 μl/mice). The control groups were immunized intraperitoneally with 100 μl each of PBS and ethanol-PBS. After seven days, mice were sacrificed and splenocytes were isolated and pooled for in vitro proliferation.
Ovalbumin (3 mg/ml) was dissolved in PBS (pH 7.2) and emulsified in Freund's complete adjuvant (FCA). Emulsion (100 μl) was then injected intraperitoneally (i.p.) in different groups, comprising 5 BALB/c mice in each set. Four groups of animals were injected intraperitoneally daily with caerulomycin A (25, 50, 75, 100 μg/100 μl/mice). The control groups were immunized intraperitoneally with ethanol-PBS.
After seven days, mice were sacrificed and splenocytes were pooled and used for proliferation assays. Splenocytes (2×10^5 cells/well) were cultured with OVA (100 μg/ml) in 200 μl RPMI/FCS-10% medium and with various concentrations of caerulomycin A (0.1-0.0003 μg/ml). The control cultures consisting of splenocytes incubated with different concentrations of caerulomycin A (no OVA), OVA and medium were also kept. After 72 h, the cultures were pulsed with 1 μCi of [^3H]-thymidine and harvested 14 h later. Radioactivity incorporated was measured by liquid scintillation counting and data are expressed as mean counts per minute (cpm).
The mice were administered with different doses of caerulomycin A for 7 days (FIG. 1). The animals were sacrificed and splenocytes were cultured in vitro with antigen and different concentrations of caerulomycin A (0.00625-0.10 μg/ml).

SMILES: COc1cc(/C=N/O)nc(-c2ccccn2)c1 [Caerulomycin A, (E)-4-methoxy-2,2′-bipyridine-6-carbaldehyde oxime]
- secretion of IgG1 type of antibodies [1]: inhibited the secretion
- secretion of IgG2a type of antibodies [1]: inhibited the secretion
- proliferation of antigen stimulated CD4+ T cells [2]: significantly suppressed the proliferation
- growth of cells from injected mice versus PBS-ethanol animals ([3]; 25 μg/mice/day for 7 days, FIG. 2): significant level of retardation in the growth
- proliferation of cells from antigen-primed animals injected with drug versus animals not administered drug ([3]; FIG. 1): substantial inhibition
- proliferation of cells from antigen-primed animals injected with drug versus animals not administered drug ([3]; FIG. 1, listed as caerulomycin A): substantial inhibition in the proliferation
- proliferation of cells from treated animals incubated in vitro with drug ([3]; cells incubated with 0.10 μg/ml of caerulomycin A, FIG. 1): Nearly complete inhibition
- optimum dosage required in vivo ([3]; mouse, in vivo): 5.0 mg/kg/body wt
